Data from patent publication US9993479B2, “Trk-inhibiting compound” (ONO PHARMACEUTICAL CO., LTD., priority 2013, dated 2018).

tested on: sodium monoiodoacetate-induced model rats; assay: Analgesic effect on sodium monoiodoacetate-induced model rats; type: in vivo, rat; details: MIA-induced model rats; test substance 0.1, 0.3 or 1 mg/kg orally twice a day day 14-23 and 3 h before measurement on day 24; Table 7 (positive control tramadol)

Going from Nc1ncc(Cl)cc1-c1ccc(Oc2ncc(NC(=O)Nc3ccc(C(F)(F)F)cc3Cl)cn2)cc1 [Example 15-6, 1-(2-(4-(2-amino-5-chloropyridin-3-yl)phenoxy)pyrimidin-5-yl)-3-(2-chloro-4-(trifluoromethyl)phenyl)urea] to Nc1ncc(Cl)cc1-c1ccc(Oc2ncc(NC(=O)Nc3cc(C(F)(F)F)ccc3-n3cccn3)cn2)cc1 [Example 7, 1-(2-(1H-pyrazol-1-yl)-5-(trifluoromethyl)phenyl)-3-(2-(4-(2-amino-5-chloropyridin-3-yl)phenoxy)pyrimidin-5-yl)urea], the “Percent improvement (%)” value rises from 51% to 61%.

First: O=C(Nc1cnc(Oc2ccc(-c3cnn4cccnc34)cc2)nc1)Nc1cc(C(F)(F)F)ccc1-c1cccnc1 [Example 21-13, 1-(2-(4-(pyrazolo[1,5-a]pyrimidin-3-yl)phenoxy)pyrimidin-5-yl)-3-(2-(pyridin-3-yl)-5-(trifluoromethyl)phenyl)urea]
Second: COc1ccn2ncc(-c3ccc(Oc4ncc(NC(=O)Nc5cc(C(F)(F)F)ccc5-c5cccnc5)cn4)cc3)c2n1 [Example 21-9, 1-(2-(4-(5-methoxypyrazolo[1,5-a]pyrimidin-3-yl)phenoxy)pyrimidin-5-yl)-3-(2-(pyridin-3-yl)-5-(trifluoromethyl)phenyl)urea]
The “Percent improvement (%)” value of the first is higher: 66% for the first, 64% for the second.

First: Cc1cn(-c2ccc(C(F)(F)F)cc2NC(=O)Nc2cnc(Oc3ccc(-c4cc(Cl)cnc4N)cc3)nc2)nn1 [Example 8-1, 1-(2-(4-(2-amino-5-chloropyridin-3-yl)phenoxy)pyrimidin-5-yl)-3-(2-(4-methyl-1H-1,2,3-triazol-1-yl)-5-(trifluoromethyl)phenyl)urea]
Second: Nc1ncc(F)cc1-c1ccc(Oc2ncc(NC(=O)Nc3cc(C(F)(F)F)ccc3-n3ccnn3)cn2)cc1 [Example 14-5, 1-(2-(1H-1,2,3-triazol-1-yl)-5-(trifluoromethyl)phenyl)-3-(2-(4-(2-amino-5-fluoropyridin-3-yl)phenoxy)pyrimidin-5-yl)urea]
The “Percent improvement (%)” value of the first is higher: 60% for the first, 47% for the second.

same assay, conditions: MIA-induced model rats; test substance 0.1, 0.3 or 1 mg/kg orally twice a day day 14-23 and 3 h before measurement on day 24; Table 8 (positive control morphine)

Compared with CN(C)c1ccn2ncc(-c3ccc(Oc4ncc(NC(=O)Nc5cc(C(F)(F)F)ccc5-c5cccnc5)cn4)cc3)c2n1 [Example 21-37, 1-(2-{4-[5-(dimethylamino)pyrazolo[1,5-a]pyrimidin-3-yl]phenoxy}-5-pyrimidinyl)-3-[2-(3-pyridinyl)-5-(trifluoromethyl)phenyl]urea], CN(C)c1ccn2ncc(-c3ccc(Oc4ncc(NC(=O)Nc5cc(C(F)(F)F)ccc5-c5ccccc5)cn4)cc3)c2n1 [Example 21-70, 1-(2-{4-[5-(dimethylamino)pyrazolo[1,5-a]pyrimidin-3-yl]phenoxy}-5-pyrimidinyl)-3-[4-(trifluoromethyl)-2-biphenylyl]urea] is lower in “Percent improvement (%)” value: 67% for the first, 61% for the second.

Compared with CS(=O)(=O)c1ccc(C(F)(F)F)cc1NC(=O)Nc1cnc(Oc2ccc(-c3cc(C(F)(F)F)cnc3N)cc2)nc1 [Example 15-98, 1-(2-{4-[2-amino-5-(trifluoromethyl)-3-pyridinyl]phenoxy}-5-pyrimidinyl)-3-[2-(methylsulfonyl)-5-(trifluoromethyl)phenyl]urea], CS(=O)(=O)c1ccc(C(F)(F)F)cc1NC(=O)Nc1cnc(Oc2ccc(-c3cc(Cl)cnc3N)cc2)nc1 [Example 15-104, 1-{2-[4-(2-amino-5-chloro-3-pyridinyl)phenoxy]-5-pyrimidinyl}-3-[2-(methylsulfonyl)-5-(trifluoromethyl)phenyl]urea] is lower in “Percent improvement (%)” value: 57% for the first, 54% for the second.

First: Nc1ncc(C(F)(F)F)cc1-c1ccc(Oc2ncc(NC(=O)Nc3cc(C(F)(F)F)ccc3-n3cc(Cl)cn3)cn2)cc1 [Example 15-87, 1-(2-{4-[2-amino-5-(trifluoromethyl)-3-pyridinyl]phenoxy}-5-pyrimidinyl)-3-[2-(4-chloro-1H-pyrazol-1-yl)-5-(trifluoromethyl)phenyl]urea]
Second: Nc1ncc(Cl)cc1-c1ccc(Oc2ncc(NC(=O)Nc3cc(C(F)(F)F)ccc3-n3cc(Cl)cn3)cn2)cc1 [Example 15-63, 1-{2-[4-(2-amino-5-chloro-3-pyridinyl)phenoxy]-5-pyrimidinyl}-3-[2-(4-chloro-1H-pyrazol-1-yl)-5-(trifluoromethyl)phenyl]urea]
The “Percent improvement (%)” value of the first is higher: 57% for the first, 53% for the second.

First: Cc1cccc(-c2ccc(C(F)(F)F)cc2NC(=O)Nc2cnc(Oc3ccc(-c4cnn5ccc(N(C)C)nc45)cc3)nc2)c1 [Example 21-73, 1-(2-{4-[5-(dimethylamino)pyrazolo[1,5-a]pyrimidin-3-yl]phenoxy}-5-pyrimidinyl)-3-[3′-methyl-4-(trifluoromethyl)-2-biphenylyl]urea]
Second: CN(C)c1ccn2ncc(-c3ccc(Oc4ncc(NC(=O)Nc5cc(C(F)(F)F)ccc5-c5ccnn5C)cn4)cc3)c2n1 [Example 21-51, 1-(2-{4-[5-(dimethylamino)pyrazolo[1,5-a]pyrimidin-3-yl]phenoxy}-5-pyrimidinyl)-3-[2-(1-methyl-1H-pyrazol-5-yl)-5-(trifluoromethyl)phenyl]urea]
The “Percent improvement (%)” value of the first is lower: 62% for the first, 68% for the second.

First: Nc1ncc(Cl)cc1-c1ccc(Oc2ncc(NC(=O)Nc3cc(C(F)(F)F)ccc3-c3ccccc3)cn2)cc1 [Example 15-55, 1-{2-[4-(2-amino-5-chloro-3-pyridinyl)phenoxy]-5-pyrimidinyl}-3-[4-(trifluoromethyl)-2-biphenylyl]urea]
Second: Nc1ncc(F)cc1-c1ccc(Oc2ncc(NC(=O)Nc3cc(C(F)(F)F)ccc3-c3cccnc3)cn2)cc1 [Example 14-6, 1-(2-(4-(2-amino-5-fluoropyridin-3-yl)phenoxy)pyrimidin-5-yl)-3-(2-(pyridin-3-yl)-5-(trifluoromethyl)phenyl)urea]
The “Percent improvement (%)” value of the first is higher: 62% for the first, 53% for the second.

First: Nc1ncc(C(F)(F)F)cc1-c1ccc(Oc2ncc(NC(=O)Nc3cc(C(F)(F)F)ccc3-n3ccc(C(F)(F)F)n3)cn2)cc1 [Example 15-52, 1-(2-{4-[2-amino-5-(trifluoromethyl)-3-pyridinyl]phenoxy}-5-pyrimidinyl)-3-{5-(trifluoromethyl)-2-[3-(trifluoromethyl)-1H-pyrazol-1-yl]phenyl}urea]
Second: Nc1ncc(Cl)cc1-c1ccc(Oc2ncc(NC(=O)Nc3ccc(C(F)(F)F)cc3C(F)(F)F)cn2)cc1 [Example 15-77, 1-{2-[4-(2-amino-5-chloro-3-pyridinyl)phenoxy]-5-pyrimidinyl}-3-[2,4-bis(trifluoromethyl)phenyl]urea]
The “Percent improvement (%)” value of the first is higher: 60% for the first, 55% for the second.

same assay, conditions: MIA-induced model rats; tramadol 10 mg/kg subcutaneously 1 hour before measurement on day 24; Table 7

In the case of COc1cccc(C2(O)CCCCC2CN(C)C)c1 (stereo not shown) [Tramadol, tramadol, reference compound], the “Percent improvement (%)” value is reported as 43%.
